Results: patent US20260217672A1, “BENZAMIDE COMPOUNDS FOR TREATMENT OF BACTERIAL INFECTIONS” (Hoffmann-La Roche Inc., priority 2022, published 2026)
In brackets after ≈: the same amount, converted by molar mass.

How the values were obtained:
[1] = system: efflux-deficient E. coli strains; settings: Bioorganic Chemistry 102 (2020) 104055; cited from earlier work
[2] = Human microsome stability assay; format: in vitro ADME; settings: 1 μM test compound, 0.5 mg/mL liver microsomal protein, NADPH regenerating system, 37° C.; <7 low, 7-16.2 medium, >16.2 high
Protocol: The human microsomal stability assay is used for early assessment of metabolic stability of a test compound in human liver microsomes.
Human liver microsomes (Cat.NO.: 452117, Corning, USA) were pre-incubated with test compound for 10 minutes at 37° C. in 100 mM potassium phosphate buffer, pH 7.4. The reactions were initiated by adding NADPH regenerating system. The final incubation mixtures contained 1 μM test compound, 0.5 mg/mL liver microsomal protein, 1 mM MgCl2, 1 mM NADP, 1 unit/mL isocitric dehydrogenase and 6 mM isocitric acid in 100 mM potassium phosphate buffer, pH 7.4. After incubation times of 0, 3, 6, 9, 15 and 30 minutes at 37° C., 300 μL of cold acetonitrile (including internal standard) was added to 100 μL incubation mixture to terminate the reaction. Following precipitation and centrifugation, the amount of compound remaining in the samples were determined by LC-MS/MS. Controls of no NADPH regenerating system at zero and 30 minutes were also prepared and analyzed. […] (Human microsome clearance: <7 mL/min/kg (low); 7-16.2 mL/min/kg (medium); >16.2 mL/min/kg (high))

[3] = system: Klebsiella pneumonia ATCC 43816; test: Minimal Inhibitory Concentration (MIC) broth dilution assay; format: cell-based; settings: Klebsiella pneumoniae, ATCC43816, 20 h, read-out: MIC Klebsiella pneumoniae ATCC43816
How it was run: (§1)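 Broth dilution MIC in cation-adjusted Mueller Hinton broth, final inoculum 5×10^5 CFU/mL, serial 2-fold compound dilutions from DMSO stocks. Plates incubated 20 hours at 35° C. in ambient air; MIC read visually as lowest concentration inhibiting visible growth.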

[4] = system: Escherichia coli ATCC 25922; test: as above; format: cell-based; settings: ATCC25922, 20 h, read-out: MIC Escherichia coli ATCC 25922
How it was run: as §1

LPS synthesis pathway = settings: Bioorganic Chemistry 102 (2020) 104055; cited from earlier work

| Compound | antibiotic activity against efflux-deficient E. coli strains [1] | Clearance of Human microsome [2] | MIC [3] | MIC [4] | LPS synthesis pathway inhibition activity (LPS synthesis pathway) |
| --- | --- | --- | --- | --- | --- |
| CC(=O)N1CCc2cc(S(=O)(=O)N3CCN(c4cc(Cl)cc(C(F)(F)F)c4)CC3)ccc21 [Example F-1, reference compound] | antibiotic activity | 14 mL/min/kg | > 24 µg/mL | > 24 µg/mL | LPS synthesis pathway inhibition activity |
| O=C(Nc1ccc(S(=O)(=O)N2CCN(c3cc(C(F)(F)F)cc(Cl)n3)CC2)cc1)c1cccc(CNCCCN2CCNCC2)c1 [Example 078, N-[4-[4-[6-chloro-4-(trifluoromethyl)-2-pyridyl]piperazin-1-yl]sulfonylphenyl]-3-[(3-piperazin-1-ylpropylamino)methyl]benzamide] |  | 6.2 mL/min/kg | 5.7 µg/mL (≈ 8.38 µM) | 1.4 µg/mL (≈ 2.06 µM) |  |
| NCCCN1CCN(c2cccc(C(=O)Nc3ccc(S(=O)(=O)N4CCN(c5cc(C(F)(F)F)cc(Cl)n5)CC4)cc3)c2)CC1 [Example 068, 3-[4-(3-Aminopropyl)piperazin-1-yl]-N-[4-[4-[6-chloro-4-(trifluoromethyl)-2-pyridyl]piperazin-1-yl]sulfonylphenyl]benzamide] |  | 6.2 mL/min/kg | 2.1 µg/mL (≈ 3.15 µM) | 1 µg/mL (≈ 1.5 µM) |  |
